# Toxic doses and inconclusive results are not listed.
# Tested on: L1210 leukemia ip in BDF1 mice, survival T/C
# Assay: NCI In Vivo Anticancer Drug Screen. Data for tumor model L1210 Leukemia (intraperitoneal) in B6D2F1 (BDF1) mice
# Conditions: endpoint: mean survival time, higher = longer survival
# Method in brief: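 Transplanted-tumor mice were given test agent; controls received vehicle only. Survival readings from the two groups were divided (treated over control).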
# [1] = dose: 100.0 mg/kg/injection, schedule: Q01DX001 (ip), vehicle: saline
# [2] = dose: 200.0 mg/kg/injection, schedule: Q01DX001 (ip), vehicle: saline
# [3] = dose: 400.0 mg/kg/injection, schedule: Q01DX001 (ip), vehicle: saline
# [4] = dose: 100.0 mg/kg/injection, schedule: Q04DX002 (ip), vehicle: saline with Tween-80
# [5] = dose: 200.0 mg/kg/injection, schedule: Q04DX002 (ip), vehicle: saline with Tween-80
# [6] = dose: 400.0 mg/kg/injection, schedule: Q04DX002 (ip), vehicle: saline with Tween-80
structure (smiles),measurement,setting,value
CCCCCCCCCCP(=O)(CCCCCCCCCC)C(O)C(Cl)(Cl)Cl (centres undefined),T/C,"dose: 100.0 mg/kg/injection, schedule: Q01DX001 (ip), vehicle: saline with Tween-80",91 % of control
same,T/C,"dose: 200.0 mg/kg/injection, schedule: Q01DX001 (ip), vehicle: saline with Tween-80",93 % of control
same,T/C,"dose: 400.0 mg/kg/injection, schedule: Q01DX001 (ip), vehicle: saline with Tween-80",94 % of control
CCCC/C(=N\OP(=O)(OCC)OCC)c1ccccc1,T/C,"dose: 75.0 mg/kg/injection, schedule: Q01DX001 (ip), vehicle: saline",101 % of control
same,T/C,"dose: 150.0 mg/kg/injection, schedule: Q01DX001 (ip), vehicle: saline",107 % of control
same,T/C,"dose: 300.0 mg/kg/injection, schedule: Q01DX001 (ip), vehicle: saline",91 % of control
c1ccc2c(CCCCc3nccc4ccccc34)nccc2c1,T/C,"dose: 100.0 mg/kg/injection, schedule: Q04DX002 (ip), vehicle: Klucel (hydroxypropylcellulose) (HPC)",102 % of control
same,T/C,"dose: 200.0 mg/kg/injection, schedule: Q04DX002 (ip), vehicle: Klucel (hydroxypropylcellulose) (HPC)",97 % of control
same,T/C,"dose: 400.0 mg/kg/injection, schedule: Q04DX002 (ip), vehicle: Klucel (hydroxypropylcellulose) (HPC)",89 % of control
CC(C)C(C)/C=C/C(C)C1CCC2C3CC=C4CC(O)CCC4(C)C3CCC12C (centres undefined),T/C,"dose: 100.0 mg/kg/injection, schedule: Q01DX001 (ip), vehicle: Klucel (hydroxypropylcellulose) (HPC)",97 % of control
same,T/C,"dose: 200.0 mg/kg/injection, schedule: Q01DX001 (ip), vehicle: Klucel (hydroxypropylcellulose) (HPC)",101 % of control
same,T/C,"dose: 400.0 mg/kg/injection, schedule: Q01DX001 (ip), vehicle: Klucel (hydroxypropylcellulose) (HPC)",90 % of control
Oc1ccc(N=Cc2ccccc2O)cc1,T/C,[1],90 % of control
same,T/C,"dose: 116.0 mg/kg/injection, schedule: Q01DX015 (ip), vehicle: steriod suspending solution",108 % of control
same,T/C,"dose: 175.0 mg/kg/injection, schedule: Q01DX015 (ip), vehicle: steriod suspending solution",123 % of control
same,T/C,"dose: 178.0 mg/kg/injection, schedule: Q01DX001 (ip), vehicle: steriod suspending solution",100 % of control
same,T/C,[2],207 % of control
same,T/C,"dose: 267.0 mg/kg/injection, schedule: Q01DX001 (ip), vehicle: steriod suspending solution",103 % of control
same,T/C,"dose: 270.0 mg/kg/injection, schedule: Q01DX Z (ip), vehicle: carboxymethylcellulose (CMC)",104 % of control
same,T/C,[3],260 % of control
same,T/C,"dose: 400.0 mg/kg/injection, schedule: Q01DX001 (ip), vehicle: steriod suspending solution",101 % of control
same,T/C,"dose: 400.0 mg/kg/injection, schedule: Q01DX Z (ip), vehicle: carboxymethylcellulose (CMC)",115 % of control
same,T/C,"dose: 600.0 mg/kg/injection, schedule: Q01DX001 (ip), vehicle: steriod suspending solution",105 % of control
CCC1([N+](=O)[O-])COP(=O)(OC(=O)c2ccc([N+](=O)[O-])cc2)OC1 (centres undefined),T/C,[1],91 % of control
same,T/C,[2],91 % of control
same,T/C,[3],92 % of control
COc1cc(CC2COC(=O)C2Cc2ccc(OC3OC(CO)C(O)C(O)C3O)c(OC)c2)ccc1O (centres undefined),T/C,"dose: 25.0 mg/kg/injection, schedule: Q04DX002 (ip), vehicle: saline",111 % of control
same,T/C,"dose: 50.0 mg/kg/injection, schedule: Q04DX002 (ip), vehicle: saline",104 % of control
same,T/C,"dose: 100.0 mg/kg/injection, schedule: Q04DX002 (ip), vehicle: saline",107 % of control
COc1ccc(CC(=O)Cc2ccc(OC)c(OC)c2)cc1OC,T/C,"dose: 100.0 mg/kg/injection, schedule: Q01DX009 (ip), vehicle: saline with Tween-80",93 % of control
same,T/C,"dose: 100.0 mg/kg/injection, schedule: Q04DX003 (ip), vehicle: saline with Tween-80",100 % of control
same,T/C,"dose: 200.0 mg/kg/injection, schedule: Q01DX009 (ip), vehicle: saline with Tween-80",98 % of control
same,T/C,"dose: 200.0 mg/kg/injection, schedule: Q04DX003 (ip), vehicle: saline with Tween-80",108 % of control
same,T/C,"dose: 400.0 mg/kg/injection, schedule: Q01DX009 (ip), vehicle: saline with Tween-80",102 % of control
same,T/C,"dose: 400.0 mg/kg/injection, schedule: Q04DX003 (ip), vehicle: saline with Tween-80",100 % of control
O=Cc1ccsc1,T/C,[4],90 % of control
same,T/C,[5],97 % of control
same,T/C,[6],101 % of control
CN1CCC=C(COC(=O)C(C)(C)C)C1,T/C,"dose: 75.0 mg/kg/injection, schedule: Q01DX001 (ip), vehicle: carboxymethylcellulose (CMC)",92 % of control
same,T/C,"dose: 150.0 mg/kg/injection, schedule: Q01DX001 (ip), vehicle: carboxymethylcellulose (CMC)",87 % of control
same,T/C,"dose: 300.0 mg/kg/injection, schedule: Q01DX001 (ip), vehicle: carboxymethylcellulose (CMC)",95 % of control
COC1CCC(/C(C#N)=C/C2CCC(N(C)C)CC2)CC1 (centres undefined),T/C,[4],95 % of control
same,T/C,[5],91 % of control
same,T/C,[6],98 % of control

# Reference: PubChem BioAssay AID248 (DTP/NCI, 2004)
